Data on 4 molecules can be found in ChEMBL document CHEMBL1149598, “Synthesis of neutral and cationic tripyridylporphyrin-D-galactose conjugates and the photoinactivation of HSV-1” (Bioorg Med Chem, 2007).

A short description of data set [1]: Photostability assessed after irradiation with 50 mW/cm^2 white light for 5 mins. Format: ADME.
Data set [2] can be described thus: Photostability assessed after irradiation with 50 mW/cm^2 white light for 10 mins. The class given is ADME.
Data set [3] concerns Vero. Put plainly: (§1) Phototoxicity against 50 mW/cm^2 white light irradiated Vero cells assessed as viable cells assessed as viable cells pretreated at 0.5 uM after 48 hrs by MTT assay. The class given is cell-based. The note with it: chlorocebus sabaeus, vero, 48 h, 0.5 µM. A general note: Tetrazolium assays rely on reduction of a dye to a coloured formazan, in cell work by metabolically active cells.

The subject of data set [4] is Vero. Put plainly: (§2) Phototoxicity against 50 mW/cm^2 white light irradiated Vero cells assessed as viable cells pretreated at 2.5 uM after 48 hrs by MTT assay. The class given is cell-based. The note with it: chlorocebus sabaeus, vero, 48 h, 2.5 µM.
Data set [5] can be described thus: Photostability assessed after irradiation with 50 mW/cm^2 white light for 3 mins. Format: ADME. The note with it: 0.05 h.
The nature of data set [6]: Photostability assessed after irradiation with 50 mW/cm^2 white light for 15 mins. The class given is ADME. The note with it: 0.25 h.
Data set [7] deals with Vero. Put plainly: (§3) Phototoxicity against 50 mW/cm^2 white light irradiated Vero cells assessed as viable cells pretreated at 0.1 uM after 48 hrs by MTT assay. Format: cell-based. The note with it: chlorocebus sabaeus, vero, 48 h, 0.1 µM.
Data set [8] concerns Vero. Put plainly: (§4) Phototoxicity against 50 mW/cm^2 white light irradiated Vero cells assessed as viable cells pretreated at 0.01 uM after 48 hrs by MTT assay. Format: cell-based. The note with it: chlorocebus sabaeus, vero, 48 h, 0.01 µM.
Data set [9] has as its system Vero. Put plainly: (§5) Phototoxicity against 50 mW/cm^2 white light irradiated Vero cells assessed as viable cells pretreated at 1.0 uM after 48 hrs by MTT assay. The class given is cell-based. The note with it: chlorocebus sabaeus, vero, 48 h, 1 µM.
Data set [10] deals with Vero. Put plainly: (§6) Phototoxicity against 50 mW/cm^2 white light irradiated Vero cells assessed as viable cells pretreated at 0.05 uM after 48 hrs by MTT assay. Format: cell-based. The note with it: chlorocebus sabaeus, vero, 48 h, 0.05 µM.
The subject of data set [11] is Human alphaherpesvirus 1. Put plainly: (§7) Virucidal effect against HSV1 pretreated at 0.02 uM after 5 mins of irradiation with 50 mW/cm^2 white light. Format: functional. The note with it: for inhibition at 0.02 µM: Human alphaherpesvirus 1, light or radiation study.
Data set [12] deals with Human alphaherpesvirus 1. Put plainly: Virucidal activity against HSV1 at 0.02 uM. Format: functional. The note with it: for inhibition at 0.02 µM: Human alphaherpesvirus 1.
A short description of data set [13]: Photostability assessed after irradiation with 50 mW/cm^2 white light for 1 min. Format: ADME.
The test system of data set [14] is Human alphaherpesvirus 1. The description is as §7. The note with it: for inhibition at 0.02 µM: Human alphaherpesvirus 1, light or radiation study. Format: functional. The source holds these as a separate data set.
Data set [15] can be described thus: as §1. The class given is cell-based. The note with it: chlorocebus sabaeus, Vero cells; read-out: Activity.
Data set [16] can be described thus: as §2. Format: cell-based. The note with it: chlorocebus sabaeus, Vero cells; read-out: Activity.
Data set [17] can be described thus: as §3. The class given is cell-based. The note with it: chlorocebus sabaeus, Vero cells; read-out: Activity.
Data set [18] can be described thus: as §4. Format: cell-based. The note with it: chlorocebus sabaeus, Vero cells; read-out: Activity.
The nature of data set [19]: as §5. The class given is cell-based. The note with it: chlorocebus sabaeus, Vero cells; read-out: Activity.
Data set [20] is described as follows: as §6. Format: cell-based. The note with it: chlorocebus sabaeus, Vero cells; read-out: Activity.
Data set [21] relates to Human alphaherpesvirus 1. Put plainly: Inhibition of HSV1 infected Vero cells treated at 0.02 uM assessed virus yield after 16 hrs of irradiated with 50 mW/ cm^2 white light for 15 mins. The note with it: Human alphaherpesvirus 1, Vero, light or radiation study. Format: functional.
The test system of data set [22] is Human alphaherpesvirus 1. Put plainly: Inhibition of HSV1 infected Vero cells treated at 0.02 uM assessed virus yield after 2 hrs under dark condition. The note with it: Human alphaherpesvirus 1, Vero. The class given is functional.
The subject of data set [23] is Human alphaherpesvirus 1. Put plainly: Inhibition of HSV1 infected Vero cells treated at 0.02 uM assessed virus yield after 16 hrs under dark condition. The class given is functional. The note with it: Human alphaherpesvirus 1, Vero.
The test system of data set [24] is Human alphaherpesvirus 1. Put plainly: Inhibition of HSV1 infected Vero cells treated at 0.02 uM assessed virus yield after 2 hrs of irradiated with 50 mW/ cm^2 white light for 15 mins. Format: functional. The note with it: Human alphaherpesvirus 1, Vero, light or radiation study.
Data set [25] concerns Human alphaherpesvirus 1. Put plainly: Inhibition of HSV1 infected Vero cells treated at 0.02 uM assessed virus yield after 4 hrs under dark condition. Format: functional. The note with it: Human alphaherpesvirus 1, Vero.
In data set [26] the test system is Human alphaherpesvirus 1. Put plainly: Inhibition of HSV1 infected Vero cells treated at 0.02 uM assessed virus yield irradiated with 50 mW/ cm^2 white light for 15 mins. The note with it: Human alphaherpesvirus 1, Vero, light or radiation study, 0.25 h. Format: functional.
The test system of data set [27] is Human alphaherpesvirus 1. Put plainly: Inhibition of HSV1 infected Vero cells treated at 0.02 uM assessed virus yield under dark condition. Format: functional. The note with it: Human alphaherpesvirus 1, Vero.
The subject of data set [28] is Human alphaherpesvirus 1. Put plainly: Inhibition of HSV1 infected Vero cells treated at 0.02 uM assessed virus yield after 4 hrs of irradiated with 50 mW/ cm^2 white light for 15 mins. The class given is functional. The note with it: Human alphaherpesvirus 1, Vero, light or radiation study.

Take `CC1(C)O[C@H]2[C@@H](O1)[C@@H](COC(=O)c1ccc(-c3c4nc(c(-c5ccncc5)c5ccc([nH]5)c(-c5ccncc5)c5nc(c(-c6ccncc6)c6ccc3[nH]6)C=C5)C=C4)cc1)O[C@@H]1OC(C)(C)O[C@@H]12`: the Activity was 98% in [1]; 94% in [2]; 36.4% with Vero [3]; 6.4% in the data set on Vero [4]; 98% in data set [5]; 93% in data set [6]. For the same molecule, the Activity in the data set on Vero [7] was determined as 93.9%; with Vero [8], 100.8%; in the data set with Vero [9], 14.4%; with Vero [10] it was 96.4%; in data set [13], 98%. Besides, the Inhibition is reported as 78.9% with Human alphaherpesvirus 1 [11], 27.7% in the data set with Human alphaherpesvirus 1 [12] and 36.4% in the data set with Human alphaherpesvirus 1 [14].
Turning to `O=C(O)c1ccc(-c2c3nc(c(-c4ccncc4)c4ccc([nH]4)c(-c4ccncc4)c4nc(c(-c5ccncc5)c5ccc2[nH]5)C=C4)C=C3)cc1` [PORPHIRIN], the Activity in data set [1] is reported as 96%; in data set [2] it was 92%; in data set [5] it was 99%; in data set [6], 87%; in data set [13], 99%. The viability at 48 h, 0.5 µM in [15] amounted to 76.6%. In addition, the viability at 48 h, 2.5 µM in data set [16] is 11.4%. Moreover, the viability at 48 h, 0.1 µM in [17] came to 90.6%. Also, the viability at 48 h, 0.01 µM in [18] was determined as 105%. For the same molecule, in data set [19], the viability at 48 h, 1 µM amounted to 39.7%. In data set [20], the viability at 48 h, 0.05 µM came to 95.7%. Besides, the inhibition at 0.02 µM was 90.5% in the data set with Human alphaherpesvirus 1 [11], 8.9% with Human alphaherpesvirus 1 [12] and 52.9% in the data set on Human alphaherpesvirus 1 [14].
`C[n+]1ccc(-c2c3nc(c(-c4cc[n+](C)cc4)c4ccc([nH]4)c(-c4cc[n+](C)cc4)c4nc(c(-c5ccc(C(=O)O)cc5)c5ccc2[nH]5)C=C4)C=C3)cc1.[I-].[I-].[I-]`: the Activity in data set [1] is listed as 98%; in [2], 98%; in [5], 98%; in [6] it was 97%; in data set [13] it was 98%. Also, the viability at 48 h, 0.5 µM in [15] was 89.2%. Also, the viability at 48 h, 2.5 µM in data set [16] is 56.3%. Also, the viability at 48 h, 0.1 µM in data set [17] is 96.7%. In addition, in data set [18], the viability at 48 h, 0.01 µM came to 110%. Further, the viability at 48 h, 1 µM in data set [19] came to 76.6%. In [20], the viability at 48 h, 0.05 µM was 98.6%. Moreover, the inhibition at 0.02 µM with Human alphaherpesvirus 1 [11] came to 63.3%; with Human alphaherpesvirus 1 [12] it was 16.7%; in the data set with Human alphaherpesvirus 1 [14] it was 50%.
With `O=C(OC[C@H]1OC(O)[C@H](O)[C@@H](O)[C@H]1O)c1ccc(-c2c3nc(c(-c4ccncc4)c4ccc([nH]4)c(-c4ccncc4)c4nc(c(-c5ccncc5)c5ccc2[nH]5)C=C4)C=C3)cc1` (some centres undefined), the inhibition at 0.02 µM in the data set on Human alphaherpesvirus 1 [21] worked out at 95.7%; in the data set on Human alphaherpesvirus 1 [22], 0%; in the data set on Human alphaherpesvirus 1 [23], 45.8%; with Human alphaherpesvirus 1 [24] it was 79.2%; in the data set with Human alphaherpesvirus 1 [25], 0%; with Human alphaherpesvirus 1 [26], 71.1%. Besides, the inhibition at 0.02 µM with Human alphaherpesvirus 1 [27] amounted to 0%; in the data set on Human alphaherpesvirus 1 [11], 85.6%; in the data set with Human alphaherpesvirus 1 [28], 93.6%; in the data set with Human alphaherpesvirus 1 [12] it was 28.6%; in the data set on Human alphaherpesvirus 1 [14], 44.5%. For the same molecule, the Activity is 97% in data set [1]; 88% in [2]; 98% in data set [5]; 83% in data set [6]; 100% in data set [13]. For the same molecule, in data set [15], the viability at 48 h, 0.5 µM is 55.5%. Also, the viability at 48 h, 2.5 µM in data set [16] stood at 4.4%. Moreover, in [17], the viability at 48 h, 0.1 µM was 92.3%. The viability at 48 h, 0.01 µM in [18] came to 108%. The viability at 48 h, 1 µM in data set [19] was 27.2%. The viability at 48 h, 0.05 µM in data set [20] was found to be 98.4%.

By Inhibition is commonly meant how much of the control response was suppressed. As a reminder, the inhibition is the share of the control response that was lost under treatment.
